# Activity calls are given as the source filed them. The rule behind the calls is not given here.
# What was measured:
# [1] = target: T1, 5-hydroxytryptamine receptor 1A (Rattus norvegicus, UniProt P19327); test: Displacement of [3H]8-OH-DPAT from 5HT1A receptor in rat brain membranes; type: cell membranes
# T1 sequence (P19327 whole entry): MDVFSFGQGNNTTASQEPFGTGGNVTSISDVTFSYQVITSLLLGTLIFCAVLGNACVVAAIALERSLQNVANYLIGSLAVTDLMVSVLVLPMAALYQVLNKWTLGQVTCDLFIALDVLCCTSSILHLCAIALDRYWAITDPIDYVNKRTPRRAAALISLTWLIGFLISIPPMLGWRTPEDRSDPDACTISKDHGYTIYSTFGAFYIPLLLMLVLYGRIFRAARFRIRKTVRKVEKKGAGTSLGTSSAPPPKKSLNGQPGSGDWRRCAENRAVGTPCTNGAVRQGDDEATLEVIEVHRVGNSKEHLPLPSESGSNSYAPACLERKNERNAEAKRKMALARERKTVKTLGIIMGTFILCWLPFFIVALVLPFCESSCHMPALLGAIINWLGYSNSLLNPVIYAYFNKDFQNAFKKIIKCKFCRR
# [2] = target: Sodium-dependent serotonin transporter (Rattus norvegicus, UniProt P31652); test: Displacement of [3H]citalopram from 5HTT in rat brain membranes; type: cell membranes
# Mus musculus [3] = test: Induction of hypothermia in Albino Swiss mouse assessed as change in body temperature pretreated for 30 mins at 5 mg/kg, ip measured 30 mins after drug dose; type: functional, organism-based; set-up: dose 5 mg/kg
# Mus musculus [4] = test: Induction of hypothermia in Albino Swiss mouse assessed as change in body temperature pretreated for 30 mins at 5 mg/kg, ip measured 60 mins after drug dose; type: functional, organism-based; set-up: dose 5 mg/kg
# Mus musculus [5] = test: Induction of hypothermia in Albino Swiss mouse assessed as change in body temperature pretreated for 30 mins at 5 mg/kg, ip measured 90 mins after drug dose; type: functional, organism-based; set-up: dose 5 mg/kg
# Mus musculus [6] = test: Induction of hypothermia in Albino Swiss mouse assessed as change in body temperature pretreated for 30 mins at 5 mg/kg, ip measured 120 mins after drug dose; type: functional, organism-based; set-up: dose 5 mg/kg
# Mus musculus [7] = test: Induction of hypothermia in Albino Swiss mouse assessed as change in body temperature pretreated for 30 mins at 10 mg/kg, ip measured 30 mins after drug dose; type: functional, organism-based; set-up: dose 10 mg/kg
# Mus musculus [8] = test: Induction of hypothermia in Albino Swiss mouse assessed as change in body temperature pretreated for 30 mins at 10 mg/kg, ip measured 60 mins after drug dose; type: functional, organism-based; set-up: dose 10 mg/kg
# Mus musculus [9] = test: Induction of hypothermia in Albino Swiss mouse assessed as change in body temperature pretreated for 30 mins at 10 mg/kg, ip measured 90 mins after drug dose; type: functional, organism-based; set-up: dose 10 mg/kg
# Mus musculus [10] = test: Induction of hypothermia in Albino Swiss mouse assessed as change in body temperature pretreated for 30 mins at 10 mg/kg, ip measured 120 mins after drug dose; type: functional, organism-based; set-up: dose 10 mg/kg
# Mus musculus [11] = test: Induction of hypothermia in Albino Swiss mouse assessed as change in body temperature pretreated for 30 mins at 20 mg/kg, ip measured 30 mins after drug dose; type: functional, organism-based; set-up: dose 20 mg/kg
# Mus musculus [12] = test: Induction of hypothermia in Albino Swiss mouse assessed as change in body temperature pretreated for 30 mins at 20 mg/kg, ip measured 60 mins after drug dose; type: functional, organism-based; set-up: dose 20 mg/kg
# Mus musculus [13] = test: Induction of hypothermia in Albino Swiss mouse assessed as change in body temperature pretreated for 30 mins at 20 mg/kg, ip measured 90 mins after drug dose; type: functional, organism-based; set-up: dose 20 mg/kg
# Mus musculus [14] = test: Induction of hypothermia in Albino Swiss mouse assessed as change in body temperature pretreated for 30 mins at 20 mg/kg, ip measured 120 mins after drug dose; type: functional, organism-based; set-up: dose 20 mg/kg
# Mus musculus [15] = test: Induction of hypothermia in 0.1 mg/kg WAY 100635 pretreated Albino Swiss mouse assessed as change in body temperature at 20 mg/kg, ip measured 30 mins after drug dose; type: functional, organism-based
# Mus musculus [16] = test: Induction of hypothermia in 0.1 mg/kg WAY 100635 pretreated Albino Swiss mouse assessed as change in body temperature at 20 mg/kg, ip measured 60 mins after drug dose; type: functional, organism-based
# Mus musculus [17] = test: Reduction of immobility time in Albino Swiss mouse at 20 mg/kg, ip pretreated for 30 mins by forced swimming test; type: functional; set-up: scale not given: the % may be the effect or the level left; conditions: route intraperitoneal
# Mus musculus [18] = test: Effect on spontaneous locomotor activity in Albino Swiss mouse assessed as number of light-beam crossings in actiometers pretreated for 30 mins at 10 mg/kg, ip measured during 6 mins post drug dose; type: functional; conditions: route intraperitoneal
# Mus musculus [19] = test: Effect on spontaneous locomotor activity in Albino Swiss mouse assessed as number of light-beam crossings in actiometers pretreated for 30 mins at 10 mg/kg, ip measured during 30 mins post drug dose; type: functional; conditions: route intraperitoneal
# Mus musculus [20] = organism: Mus musculus; conditions: Albino Swiss, 10 mg/kg
# Description: Induction of hypothermia in 0.1 mg/kg WAY 100635 pretreated Albino Swiss mouse assessed as change in body temperature at 10 mg/kg, ip measured 30 mins after drug dose
# Mus musculus [21] = organism: Mus musculus; conditions: Albino Swiss, 10 mg/kg; remark: listed apart in the source
# Description: Induction of hypothermia in 0.1 mg/kg WAY 100635 pretreated Albino Swiss mouse assessed as change in body temperature at 10 mg/kg, ip measured 60 mins after drug dose
# Mus musculus [22] = test: Inhibition of 8-OH-DPAT-induced hypothermia in Albino Swiss mouse assessed as change in body temperature at 20 mg/kg, ip; type: functional, organism-based; set-up: dose 20 mg/kg
# Mus musculus [23] = test: Reduction of immobility time in Albino Swiss mouse at 10 mg/kg, ip pretreated for 30 mins by forced swimming test; type: functional; set-up: scale not given: the % may be the effect or the level left; conditions: route intraperitoneal
# Mus musculus [24] = test: Effect on spontaneous locomotor activity in Albino Swiss mouse assessed as number of light-beam crossings in actiometers pretreated for 30 mins at 20 mg/kg, ip measured during 6 mins post drug dose; type: functional; conditions: route intraperitoneal
# Mus musculus [25] = test: Effect on spontaneous locomotor activity in Albino Swiss mouse assessed as number of light-beam crossings in actiometers pretreated for 30 mins at 20 mg/kg, ip measured during 30 mins post drug dose; type: functional; conditions: route intraperitoneal
# Chain of Sodium-dependent serotonin transporter (P31652 whole entry): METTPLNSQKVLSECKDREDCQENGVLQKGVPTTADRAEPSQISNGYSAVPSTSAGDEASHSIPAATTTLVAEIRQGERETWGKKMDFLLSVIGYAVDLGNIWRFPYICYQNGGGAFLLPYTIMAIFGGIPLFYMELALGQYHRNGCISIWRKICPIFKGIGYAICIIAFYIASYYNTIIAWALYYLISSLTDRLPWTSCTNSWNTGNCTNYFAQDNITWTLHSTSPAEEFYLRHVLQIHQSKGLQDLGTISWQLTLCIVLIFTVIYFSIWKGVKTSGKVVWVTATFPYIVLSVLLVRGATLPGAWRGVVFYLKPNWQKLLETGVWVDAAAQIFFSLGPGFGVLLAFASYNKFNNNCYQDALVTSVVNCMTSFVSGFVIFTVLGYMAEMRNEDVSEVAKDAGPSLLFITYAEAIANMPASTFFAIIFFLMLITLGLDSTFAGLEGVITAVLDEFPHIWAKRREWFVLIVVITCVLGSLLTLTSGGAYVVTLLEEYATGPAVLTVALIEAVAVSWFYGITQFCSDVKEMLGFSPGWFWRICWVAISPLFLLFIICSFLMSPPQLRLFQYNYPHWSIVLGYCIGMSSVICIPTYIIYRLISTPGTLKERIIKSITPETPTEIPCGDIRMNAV
SMILES,Ki [1] [nM],Ki [2] [nM],deltaT (Mus musculus [3]) [°C],deltaT (Mus musculus [4]) [°C],deltaT (Mus musculus [5]) [°C],deltaT (Mus musculus [6]) [°C],deltaT (Mus musculus [7]) [°C],deltaT (Mus musculus [8]) [°C],deltaT (Mus musculus [9]) [°C],deltaT (Mus musculus [10]) [°C],deltaT (Mus musculus [11]) [°C],deltaT (Mus musculus [12]) [°C],deltaT (Mus musculus [13]) [°C],deltaT (Mus musculus [14]) [°C],other results
COc1ccc2[nH]cc(C3CCN(CCCCn4c(=O)c(-c5ccc(C)cc5)c5ccccn5c4=O)CC3)c2c1,59,223,–,–,–,–,–,–,–,–,–,–,–,–,–
O=c1c(-c2ccc(F)cc2)c2ccccn2c(=O)n1CCCCN1CCC(c2c[nH]c3ccccc23)CC1,9.2,37.6,-0.4,-0.3,-0.4,-0.3,-1.2,-1.2,-1,-0.8,-1.2,-1,-0.8,-0.6,Activity (Mus musculus [17]): 34%; Activity (Mus musculus [18]): 376; Activity (Mus musculus [19]): 965; deltaT (Mus musculus [20]): -0.8 °C; deltaT (Mus musculus [21]): -0.8 °C
COc1ccc(-c2c(=O)n(CCCCN3CCC(c4c[nH]c5ccc(OC)cc45)CC3)c(=O)n3ccccc23)cc1,78,129,–,–,–,–,–,–,–,–,–,–,–,–,–
O=c1c(-c2ccccc2)c2ccccn2c(=O)n1CCCCN1CCC(c2c[nH]c3ccccc23)CC1,10.9,58.1,-0.4,-0.5,-0.4,-0.1,-0.8,-0.4,-0.3,-0.1,-1.2,-1.3,-1.1,-1.9,deltaT (Mus musculus [15]): -0.5 °C; deltaT (Mus musculus [16]): -0.3 °C; Activity (Mus musculus [23]): 29%; Activity (Mus musculus [24]): 409; Activity (Mus musculus [25]): 926

# The next lines start with results.
Ki [1] [nM],Ki [2] [nM],SMILES,deltaT (Mus musculus [3]) [°C],deltaT (Mus musculus [4]) [°C],deltaT (Mus musculus [5]) [°C],deltaT (Mus musculus [6]) [°C],deltaT (Mus musculus [7]) [°C],deltaT (Mus musculus [8]) [°C],deltaT (Mus musculus [9]) [°C],deltaT (Mus musculus [10]) [°C],deltaT (Mus musculus [11]) [°C],deltaT (Mus musculus [12]) [°C],deltaT (Mus musculus [13]) [°C],deltaT (Mus musculus [14]) [°C],other results
37.1,280,O=c1c(-c2ccc(Cl)cc2)c2ccccn2c(=O)n1CCCCN1CCC(c2c[nH]c3ccccc23)CC1,-0.5,-0.4,-0.4,-0.2,-0.4,-0.1,-0.1,-0.1,-1.2,-1,-1.1,-0.7,deltaT (Mus musculus [15]): -0.4 °C; deltaT (Mus musculus [16]): -0.2 °C
42.1,145,COc1ccc(-c2c(=O)n(CCCCN3CCC(c4c[nH]c5ccccc45)CC3)c(=O)n3ccccc23)cc1,-0.3,-0.6,-0.6,-0.4,-0.3,-0.3,-0.1,-0.2,-0.3,-0.2,-0.2,-0.1,Activity (Mus musculus [22]): inactive
16.7,59.3,COc1ccc2[nH]cc(C3CCN(CCCCn4c(=O)c(-c5ccccc5F)c5ccccn5c4=O)CC3)c2c1,–,–,–,–,–,–,–,–,–,–,–,–,–

# Reference: ChEMBL document CHEMBL1137726, “Novel 4-aryl-pyrido[1,2-c]pyrimidines with dual SSRI and 5-HT1A activity, part 1” (Eur J Med Chem, 2009)
